Reference: ChEMBL document CHEMBL3046140, “Design, synthesis, antimicrobial, anticancer evaluation, and QSAR studies of 4-(substituted benzylidene-amino)-1,5-dimethyl-2-phenyl-1,2-dihydropyrazol-3-ones” (Med Chem Res, 2012)

Experiments:
Aspergillus niger [1] = assay: Fungicidal activity against Aspergillus niger MTCC 8189; type: functional
Candida albicans [2] = assay: Fungicidal activity against Candida albicans MTCC 227; type: functional
Escherichia coli [3] = assay: Bactericidal activity against Escherichia coli MTCC 1652; type: functional
Staphylococcus aureus [4] = assay: Bactericidal activity against Staphylococcus aureus MTCC 2901; type: functional
Bacillus subtilis [5] = assay: Bactericidal activity against Bacillus subtilis MTCC 2063; type: functional
Aspergillus niger [6] = assay: Antifungal activity against Aspergillus niger MTCC 8189 after 7 days by tube dilution method; type: functional
Candida albicans [7] = assay: Antifungal activity against Candida albicans MTCC 227 after 48 hr by tube dilution method; type: functional
Escherichia coli [8] = assay: Antibacterial activity against Escherichia coli MTCC 1652 after 24 hr by tube dilution method; type: functional
Bacillus subtilis [9] = assay: Antibacterial activity against Bacillus subtilis MTCC 2063 after 24 hr by tube dilution method; type: functional
Staphylococcus aureus [10] = assay: Antibacterial activity against Staphylococcus aureus MTCC 2901 after 24 hr by tube dilution method; type: functional
HCT-116 = assay: Cytotoxicity against Homo sapiens (human) HCT116 cells after 72 hr by MTT assay; type: functional, cell-based; conditions: HCT-116, 72 h, read-out: pIC50 (converted)
HT-29 = assay: Cytotoxicity against Homo sapiens (human) HT-29 cells after 72 hr by MTT assay; type: functional, cell-based; conditions: HT-29, 72 h, read-out: pIC50 (converted)

## Cc1c(/N=C/c2ccccc2)c(=O)n(-c2ccccc2)n1C
Aspergillus niger [1]
  MFC: >0.17 uM/ml
Candida albicans [2]
  MFC: >0.17 uM/ml
Escherichia coli [3]
  MBC: >0.17 uM/ml
Staphylococcus aureus [4]
  MBC: >0.17 uM/ml
Bacillus subtilis [5]
  MBC: >0.17 uM/ml
Aspergillus niger [6]
  -logMIC: 1.37
Candida albicans [7]
  -logMIC: 1.37
Escherichia coli [8]
  -logMIC: 1.37
Bacillus subtilis [9]
  -logMIC: 1.07
Staphylococcus aureus [10]
  -logMIC: 1.07

## Cc1c(/N=C/c2ccc(Cl)cc2)c(=O)n(-c2ccccc2)n1C
Aspergillus niger [1]
  MFC: 0.15 uM/ml
Candida albicans [2]
  MFC: >0.15 uM/ml
Escherichia coli [3]
  MBC: >0.15 uM/ml
Staphylococcus aureus [4]
  MBC: >0.15 uM/ml
Bacillus subtilis [5]
  MBC: >0.15 uM/ml
Aspergillus niger [6]
  -logMIC: 1.42
Candida albicans [7]
  -logMIC: 1.42
Escherichia coli [8]
  -logMIC: 1.12
Bacillus subtilis [9]
  -logMIC: 1.12
Staphylococcus aureus [10]
  -logMIC: 1.12

## Cc1c(/N=C/c2ccc(O)cc2)c(=O)n(-c2ccccc2)n1C
Aspergillus niger [1]
  MFC: >0.16 uM/ml
Candida albicans [2]
  MFC: >0.16 uM/ml
Escherichia coli [3]
  MBC: >0.16 uM/ml
Staphylococcus aureus [4]
  MBC: >0.16 uM/ml
Bacillus subtilis [5]
  MBC: >0.16 uM/ml
Aspergillus niger [6]
  -logMIC: 1.69
Candida albicans [7]
  -logMIC: 1.39
Escherichia coli [8]
  -logMIC: 1.39
Bacillus subtilis [9]
  -logMIC: 1.39
Staphylococcus aureus [10]
  -logMIC: 1.39

## COc1ccc(/C=N/c2c(C)n(C)n(-c3ccccc3)c2=O)cc1
Aspergillus niger [1]
  MFC: >0.16 uM/ml
Candida albicans [2]
  MFC: >0.16 uM/ml
Escherichia coli [3]
  MBC: >0.16 uM/ml
Staphylococcus aureus [4]
  MBC: >0.16 uM/ml
Bacillus subtilis [5]
  MBC: >0.16 uM/ml
Aspergillus niger [6]
  -logMIC: 1.41
Candida albicans [7]
  -logMIC: 1.41
Escherichia coli [8]
  -logMIC: 1.41
Bacillus subtilis [9]
  -logMIC: 1.11
Staphylococcus aureus [10]
  -logMIC: 1.11

## COc1ccc(/C=N/c2c(C)n(C)n(-c3ccccc3)c2=O)cc1OC
Aspergillus niger [1]
  MFC: >0.14 uM/ml
Candida albicans [2]
  MFC: >0.14 uM/ml
Escherichia coli [3]
  MBC: >0.14 uM/ml
Staphylococcus aureus [4]
  MBC: >0.14 uM/ml
Bacillus subtilis [5]
  MBC: >0.14 uM/ml
Aspergillus niger [6]
  -logMIC: 1.45
Candida albicans [7]
  -logMIC: 1.45
Escherichia coli [8]
  -logMIC: 1.45
Bacillus subtilis [9]
  -logMIC: 1.15
Staphylococcus aureus [10]
  -logMIC: 1.15

## COc1cc(/C=N/c2c(C)n(C)n(-c3ccccc3)c2=O)cc(OC)c1OC
Aspergillus niger [1]
  MFC: 0.13 uM/ml
Candida albicans [2]
  MFC: >0.13 uM/ml
Escherichia coli [3]
  MBC: >0.13 uM/ml
Staphylococcus aureus [4]
  MBC: >0.13 uM/ml
Bacillus subtilis [5]
  MBC: >0.13 uM/ml
Aspergillus niger [6]
  -logMIC: 1.48
Candida albicans [7]
  -logMIC: 1.48
Escherichia coli [8]
  -logMIC: 1.48
Bacillus subtilis [9]
  -logMIC: 1.48
Staphylococcus aureus [10]
  -logMIC: 1.48

## Cc1c(/N=C/c2cccc(Cl)c2)c(=O)n(-c2ccccc2)n1C
Aspergillus niger [1]
  MFC: >0.15 uM/ml
Candida albicans [2]
  MFC: >0.15 uM/ml
Escherichia coli [3]
  MBC: >0.15 uM/ml
Staphylococcus aureus [4]
  MBC: >0.15 uM/ml
Bacillus subtilis [5]
  MBC: >0.15 uM/ml
Aspergillus niger [6]
  -logMIC: 1.42
Candida albicans [7]
  -logMIC: 2.02
Escherichia coli [8]
  -logMIC: 2.02
Bacillus subtilis [9]
  -logMIC: 1.72
Staphylococcus aureus [10]
  -logMIC: 1.72

## Cc1c(/N=C/c2ccc(Cl)cc2Cl)c(=O)n(-c2ccccc2)n1C
Aspergillus niger [1]
  MFC: >0.14 uM/ml
Candida albicans [2]
  MFC: >0.14 uM/ml
Escherichia coli [3]
  MBC: >0.14 uM/ml
Staphylococcus aureus [4]
  MBC: >0.14 uM/ml
Bacillus subtilis [5]
  MBC: >0.14 uM/ml
Aspergillus niger [6]
  -logMIC: 1.46
Candida albicans [7]
  -logMIC: 1.46
Escherichia coli [8]
  -logMIC: 1.46
Bacillus subtilis [9]
  -logMIC: 1.16
Staphylococcus aureus [10]
  -logMIC: 1.16

## COc1cccc(/C=N/c2c(C)n(C)n(-c3ccccc3)c2=O)c1O
HCT-116
  IC50: 89.1 µM
Aspergillus niger [1]
  MFC: >0.15 uM/ml
Candida albicans [2]
  MFC: >0.15 uM/ml
Escherichia coli [3]
  MBC: >0.15 uM/ml
Staphylococcus aureus [4]
  MBC: >0.15 uM/ml
Bacillus subtilis [5]
  MBC: >0.15 uM/ml
Aspergillus niger [6]
  -logMIC: 1.13
Candida albicans [7]
  -logMIC: 1.43
Escherichia coli [8]
  -logMIC: 1.43
Bacillus subtilis [9]
  -logMIC: 1.13
Staphylococcus aureus [10]
  -logMIC: 1.13

## Cc1c(/N=C/c2cccc([N+](=O)[O-])c2)c(=O)n(-c2ccccc2)n1C
Aspergillus niger [1]
  MFC: >0.15 uM/ml
Candida albicans [2]
  MFC: >0.15 uM/ml
Escherichia coli [3]
  MBC: >0.15 uM/ml
Staphylococcus aureus [4]
  MBC: >0.15 uM/ml
Bacillus subtilis [5]
  MBC: >0.15 uM/ml
Aspergillus niger [6]
  -logMIC: 1.43
Candida albicans [7]
  -logMIC: 1.43
Escherichia coli [8]
  -logMIC: 1.43
Bacillus subtilis [9]
  -logMIC: 1.43
Staphylococcus aureus [10]
  -logMIC: 1.13

## COc1ccccc1/C=N/c1c(C)n(C)n(-c2ccccc2)c1=O
HT-29
  IC50: 70.8 µM
Aspergillus niger [1]
  MFC: >0.16 uM/ml
Candida albicans [2]
  MFC: >0.16 uM/ml
Escherichia coli [3]
  MBC: >0.16 uM/ml
Staphylococcus aureus [4]
  MBC: >0.16 uM/ml
Bacillus subtilis [5]
  MBC: >0.16 uM/ml
Aspergillus niger [6]
  -logMIC: 1.41
Candida albicans [7]
  -logMIC: 1.41
Escherichia coli [8]
  -logMIC: 1.41
Bacillus subtilis [9]
  -logMIC: 1.41
Staphylococcus aureus [10]
  -logMIC: 1.41

## COc1cccc(/C=N/c2c(C)n(C)n(-c3ccccc3)c2=O)c1
Aspergillus niger [1]
  MFC: 0.16 uM/ml
Candida albicans [2]
  MFC: >0.16 uM/ml
Escherichia coli [3]
  MBC: >0.16 uM/ml
Staphylococcus aureus [4]
  MBC: >0.16 uM/ml
Bacillus subtilis [5]
  MBC: >0.16 uM/ml
Aspergillus niger [6]
  -logMIC: 1.41
Candida albicans [7]
  -logMIC: 1.41
Escherichia coli [8]
  -logMIC: 1.41
Bacillus subtilis [9]
  -logMIC: 1.11
Staphylococcus aureus [10]
  -logMIC: 1.11

## Cc1c(/N=C/c2ccccc2Cl)c(=O)n(-c2ccccc2)n1C
Aspergillus niger [1]
  MFC: >0.15 uM/ml
Candida albicans [2]
  MFC: >0.15 uM/ml
Escherichia coli [3]
  MBC: >0.15 uM/ml
Staphylococcus aureus [4]
  MBC: >0.15 uM/ml
Bacillus subtilis [5]
  MBC: >0.15 uM/ml
Aspergillus niger [6]
  -logMIC: 1.42
Candida albicans [7]
  -logMIC: 1.42
Escherichia coli [8]
  -logMIC: 1.42
Bacillus subtilis [9]
  -logMIC: 1.42
Staphylococcus aureus [10]
  -logMIC: 1.12

## Cc1c(/N=C/c2cccc(O)c2)c(=O)n(-c2ccccc2)n1C
Aspergillus niger [1]
  MFC: >0.16 uM/ml
Candida albicans [2]
  MFC: >0.16 uM/ml
Escherichia coli [3]
  MBC: >0.16 uM/ml
Staphylococcus aureus [4]
  MBC: >0.16 uM/ml
Bacillus subtilis [5]
  MBC: >0.16 uM/ml
Aspergillus niger [6]
  -logMIC: 1.39
Candida albicans [7]
  -logMIC: 1.39
Escherichia coli [8]
  -logMIC: 1.39
Bacillus subtilis [9]
  -logMIC: 1.39
Staphylococcus aureus [10]
  -logMIC: 1.09

## CCOc1cc(/C=N/c2c(C)n(C)n(-c3ccccc3)c2=O)ccc1O
Aspergillus niger [1]
  MFC: >0.14 uM/ml
Candida albicans [2]
  MFC: >0.14 uM/ml
Escherichia coli [3]
  MBC: >0.14 uM/ml
Staphylococcus aureus [4]
  MBC: >0.14 uM/ml
Bacillus subtilis [5]
  MBC: >0.14 uM/ml
Aspergillus niger [6]
  -logMIC: 1.45
Candida albicans [7]
  -logMIC: 1.45
Escherichia coli [8]
  -logMIC: 1.45
Bacillus subtilis [9]
  -logMIC: 1.15
Staphylococcus aureus [10]
  -logMIC: 1.15

## OC(Cn1cncn1)(Cn1cncn1)c1ccc(F)cc1F [FLUCONAZOLE]
Aspergillus niger [1]
  MFC: 0.04 uM/ml
Candida albicans [2]
  MFC: 0.04 uM/ml
Aspergillus niger [6]
  -logMIC: 2.64
Candida albicans [7]
  -logMIC: 2.64

## O=c1[nH]cc(F)c(=O)[nH]1 [FLUOROURACIL]
HT-29
  IC50: 85.1 µM
HCT-116
  IC50: 45.7 µM

## CCn1cc(C(=O)O)c(=O)c2cc(F)c(N3CCNCC3)cc21 [NORFLOXACIN]
Escherichia coli [3]
  MBC: 0.019 uM/ml
Staphylococcus aureus [4]
  MBC: 0.019 uM/ml
Bacillus subtilis [5]
  MBC: 0.019 uM/ml
Escherichia coli [8]
  -logMIC: 2.61
Bacillus subtilis [9]
  -logMIC: 2.61
Staphylococcus aureus [10]
  -logMIC: 2.61
